Data from publication PMC11665983, “Inhibition of CFTR-mediated intestinal chloride secretion by nornidulin: Cellular mechanisms and anti-secretory efficacy in human intestinal epithelial cells and human colonoids” (PLOS ONE, 2024).

Biological target: cystic fibrosis transmembrane conductance regulator (CFTR) (Homo sapiens, UniProt P13569)
Assay: CPT-cAMP-stimulated apical chloride current in basolaterally permeabilized T84 monolayers (endogenous CFTR); genistein-stimulated current also inhibited (IC50 […])
Assay type: cell-based

Chain of cystic fibrosis transmembrane conductance regulator (CFTR) (P13569 whole entry): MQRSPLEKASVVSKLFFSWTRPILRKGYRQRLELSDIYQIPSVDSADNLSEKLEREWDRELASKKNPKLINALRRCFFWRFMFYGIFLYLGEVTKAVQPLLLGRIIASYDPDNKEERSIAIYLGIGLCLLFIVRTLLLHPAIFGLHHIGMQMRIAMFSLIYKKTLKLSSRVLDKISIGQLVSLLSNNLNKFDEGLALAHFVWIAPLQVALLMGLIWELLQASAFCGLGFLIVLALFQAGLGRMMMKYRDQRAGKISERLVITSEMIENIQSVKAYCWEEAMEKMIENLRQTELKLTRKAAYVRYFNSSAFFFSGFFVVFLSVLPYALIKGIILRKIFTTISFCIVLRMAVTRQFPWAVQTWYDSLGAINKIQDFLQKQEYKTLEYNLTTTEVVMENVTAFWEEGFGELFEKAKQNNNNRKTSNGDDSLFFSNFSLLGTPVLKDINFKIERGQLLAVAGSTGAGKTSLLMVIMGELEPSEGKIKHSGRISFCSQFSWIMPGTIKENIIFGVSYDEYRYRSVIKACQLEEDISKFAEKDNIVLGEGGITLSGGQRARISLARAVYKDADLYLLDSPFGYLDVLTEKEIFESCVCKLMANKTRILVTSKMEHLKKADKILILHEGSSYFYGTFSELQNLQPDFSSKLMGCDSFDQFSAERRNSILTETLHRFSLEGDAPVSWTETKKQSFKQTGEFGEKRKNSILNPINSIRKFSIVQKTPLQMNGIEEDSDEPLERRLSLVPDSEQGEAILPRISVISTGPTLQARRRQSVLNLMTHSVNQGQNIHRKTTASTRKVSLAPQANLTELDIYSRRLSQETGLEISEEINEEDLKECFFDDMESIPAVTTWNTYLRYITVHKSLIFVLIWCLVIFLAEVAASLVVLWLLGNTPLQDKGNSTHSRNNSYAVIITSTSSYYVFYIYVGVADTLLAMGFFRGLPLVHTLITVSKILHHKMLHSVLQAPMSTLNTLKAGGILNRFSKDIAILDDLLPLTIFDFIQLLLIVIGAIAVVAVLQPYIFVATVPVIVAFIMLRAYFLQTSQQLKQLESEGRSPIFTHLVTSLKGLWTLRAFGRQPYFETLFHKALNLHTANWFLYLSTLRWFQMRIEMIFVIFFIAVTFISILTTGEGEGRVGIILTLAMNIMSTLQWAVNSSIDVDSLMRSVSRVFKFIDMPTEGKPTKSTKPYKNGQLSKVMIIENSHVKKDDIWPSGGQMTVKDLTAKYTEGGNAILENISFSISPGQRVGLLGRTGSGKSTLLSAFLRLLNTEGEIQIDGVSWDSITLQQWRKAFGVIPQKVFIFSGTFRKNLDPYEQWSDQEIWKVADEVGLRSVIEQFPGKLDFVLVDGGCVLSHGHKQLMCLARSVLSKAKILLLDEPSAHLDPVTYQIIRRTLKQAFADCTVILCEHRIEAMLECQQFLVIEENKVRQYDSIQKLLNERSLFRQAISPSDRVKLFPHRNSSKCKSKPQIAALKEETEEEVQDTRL

**Q.** `C/C=C(\C)c1c(Cl)c(O)c(C)c2c1Oc1c(Cl)c(O)c(Cl)c(C)c1C(=O)O2` [N9, nornidulin] was tested. Which IC50 did it give?
**A.** Its IC50 is 1030 ± 130 nM.
